Measured values from ChEMBL document CHEMBL4742387, “Condensed tricyclic compounds as protein kinase inhibitors” (2018).
The source made the active and inactive calls. The calls are words filed in the database; no cut-off is given here.

What was measured:
BXPC-3 [1] = assay: Synergistic antiproliferative activity against human BXPC-3 cells assessed as reduction in cell proliferation by measuring combination index in presence of Elesclomol by MTT assay; type: functional
DU-145 [2] = assay: Synergistic antiproliferative activity against human DU-145 cells assessed as reduction in cell proliferation by measuring combination index in presence of Taxol by MTT assay; type: functional
SW-620 [3] = assay: Induction of cell cycle arrest in human SW-620 cells assessed as accumulation at G2M phase at 0.5 to 5 uM incubated for 24 hrs by propidium iodide staining based assay; type: functional; details: dose 0.5-5 µM
SW-620 [4] = assay: Antiproliferative activity against human SW-620 cells assessed as reduction in cell proliferation by CellTiter-Glo luminescent cell viability assay; type: functional; details: Homo sapiens, SW-620
SW-620 [5] = assay: Synergistic antiproliferative activity against human SW-620 cells assessed as reduction in cell proliferation by measuring combination index in presence of Crizotinib by MTT assay; type: functional
MDA-MB-231 [6] = assay: Antiproliferative activity against human MDA-MB-231 cells assessed as reduction in cell proliferation by CellTiter-Glo luminescent cell viability assay; type: functional; details: Homo sapiens, MDA-MB-231
SW-620 [7] = assay: Synergistic antiproliferative activity against human SW-620 cells assessed as reduction in cell proliferation by measuring combination index in presence of oxaliplatin by MTT assay; type: functional
MDA-MB-231 [8] = assay: Synergistic antiproliferative activity against human MDA-MB-231 cells assessed as reduction in cell proliferation by measuring combination index in presence of Elesclomol by MTT assay; type: functional
SK-MEL19 [9] = assay: Synergistic antiproliferative activity against human SK-MEL19 cells assessed as reduction in cell proliferation by measuring combination index in presence of Elesclomol by MTT assay; type: functional
Mus musculus [10] = assay: Inhibition of CDK8 in athymic nude mouse xenografted with human SW-620 cells assessed as reduction in STAT1 S727 phosphorylation 5 mg/kg, po administered as single dose after 1 hr by Western blot analysis; type: functional, organism-based
BXPC-3 [11] = assay: Antiproliferative activity against human BXPC-3 cells assessed as reduction in cell proliferation by CellTiter-Glo luminescent cell viability assay; type: functional
Mus musculus [12] = assay: Inhibition of CDK8 in athymic nude mouse xenografted with human SW-620 cells assessed as reduction in STAT1 S727 phosphorylation 5 mg/kg, po administered as single dose after 4 hrs by Western blot analysis; type: functional, organism-based
HCT-116 [13] = assay: Synergistic antiproliferative activity against human HCT-116 cells assessed as reduction in cell proliferation by measuring combination index in presence of taxol by MTT assay; type: functional
DU-145 [14] = assay: Antiproliferative activity against human DU-145 cells assessed as reduction in cell proliferation by CellTiter-Glo luminescent cell viability assay; type: functional
DU-145 [15] = assay: Synergistic antiproliferative activity against human DU-145 cells assessed as reduction in cell proliferation by measuring combination index in presence of Ali-sertib by MTT assay; type: functional
BXPC-3 [16] = assay: Synergistic antiproliferative activity against human BXPC-3 cells assessed as reduction in cell proliferation by measuring combination index in presence of crizotinib by MTT assay; type: functional
SW-620 [17] = assay: Inhibition of colony formation of human SW-620 cells incubated for 11 days (Every 3 days medium is changed by fresh medium and compounds were added freshly) by crystal violet staining based assay; type: functional, cell-based
MOLM-13 = assay: Antiproliferative activity against human MOLM-13 cells assessed as reduction in cell proliferation by CellTiter-Glo luminescent cell viability assay; type: functional; details: Homo sapiens, MOLM-13
SW-620 [18] = assay: Synergistic antiproliferative activity against human SW-620 cells assessed as reduction in cell proliferation by measuring combination index in presence of ABT-751 by MTT assay; type: functional
HCT-116 [19] = assay: Synergistic antiproliferative activity against human HCT-116 cells assessed as reduction in cell proliferation by measuring combination index in presence of crizotinib by MTT assay; type: functional
A549 [20] = assay: Synergistic antiproliferative activity against human A549 cells assessed as reduction in cell proliferation by measuring combination index in presence of Elesclomol by MTT assay; type: functional
MV4-11 = assay: Antiproliferative activity against human MV4-11 cells assessed as reduction in cell proliferation by CellTiter-Glo luminescent cell viability assay; type: functional; details: Homo sapiens, MV4-11
[21] = target: T1, Serine/threonine-protein kinase haspin (Homo sapiens) (UniProt Q8TF76); assay: Inhibition of haspin in synchronized human SW620 cells assessed as reduction in IFNgamma-induced H3T3 phosphorylation pre-incubated for 1 hr before IFNgamma stimulation for 3 hrs by Western blot analysis; type: cell-based; details: SW-620, time 4.0 hrs
T1 sequence (whole entry): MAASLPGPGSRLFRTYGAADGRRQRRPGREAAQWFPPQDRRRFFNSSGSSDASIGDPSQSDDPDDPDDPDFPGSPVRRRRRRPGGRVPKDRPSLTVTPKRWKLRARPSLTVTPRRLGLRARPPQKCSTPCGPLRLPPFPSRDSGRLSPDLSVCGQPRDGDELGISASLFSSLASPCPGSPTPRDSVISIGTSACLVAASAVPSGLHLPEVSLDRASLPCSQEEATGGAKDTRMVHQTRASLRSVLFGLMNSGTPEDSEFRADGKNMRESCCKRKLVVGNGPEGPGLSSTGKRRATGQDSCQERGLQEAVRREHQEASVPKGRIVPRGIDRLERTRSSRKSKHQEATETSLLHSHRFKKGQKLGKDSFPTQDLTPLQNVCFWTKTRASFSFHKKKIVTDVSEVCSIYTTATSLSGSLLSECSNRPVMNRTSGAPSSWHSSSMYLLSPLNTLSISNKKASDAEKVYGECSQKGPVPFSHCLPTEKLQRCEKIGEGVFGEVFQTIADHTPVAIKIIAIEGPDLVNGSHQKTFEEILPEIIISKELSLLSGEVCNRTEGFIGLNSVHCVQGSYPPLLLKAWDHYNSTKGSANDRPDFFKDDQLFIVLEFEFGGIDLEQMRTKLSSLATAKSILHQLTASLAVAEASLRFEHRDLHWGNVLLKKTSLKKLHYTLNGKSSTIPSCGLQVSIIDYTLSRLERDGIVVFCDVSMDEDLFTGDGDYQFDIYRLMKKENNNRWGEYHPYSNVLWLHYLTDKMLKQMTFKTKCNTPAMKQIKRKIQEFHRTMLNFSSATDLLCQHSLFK

HCT-116 [22] = assay: Antiproliferative activity against human HCT-116 cells assessed as reduction in cell proliferation by CellTiter-Glo luminescent cell viability assay; type: functional
SW-620 [23] = assay: Synergistic antiproliferative activity against human SW-620 cells assessed as reduction in cell proliferation by measuring combination index in presence of Ali-sertib by MTT assay; type: functional
A549 [24] = assay: Antiproliferative activity against human A549 cells assessed as reduction in cell proliferation by CellTiter-Glo luminescent cell viability assay; type: functional
DU-145 [25] = assay: Synergistic antiproliferative activity against human DU-145 cells assessed as reduction in cell proliferation by measuring combination index in presence of crizotinib by MTT assay; type: functional
HCT-116 [26] = assay: Synergistic antiproliferative activity against human HCT-116 cells assessed as reduction in cell proliferation by measuring combination index in presence of Ali-sertib by MTT assay; type: functional
SK-MEL19 [27] = assay: Synergistic antiproliferative activity against human SK-MEL19 cells assessed as reduction in cell proliferation by measuring combination index in presence of Crizotinib by MTT assay; type: functional
SW-620 [28] = assay: Synergistic antiproliferative activity against human SW-620 cells assessed as reduction in cell proliferation by measuring combination index in presence of taxol by MTT assay; type: functional
SW-620 [29] = assay: Induction of apoptosis in human SW-620 cells at 0.5 to 5 uM incubated for 24 hrs by propidium iodide staining based assay; type: functional, cell-based; details: dose 0.5-5 µM
[30] = target: Cyclin-dependent kinase 8 (Homo sapiens, UniProt P49336); assay: Inhibition of CDK8 in human SW-620 cells assessed as reduction in STAT1 S727 phosphorylation pre-incubated for 1 hr before IFNgamma stimulation for 3 hrs by Western blot analysis; type: cell-based
SW-620 [31] = assay: Synergistic antiproliferative activity against human SW-620 cells assessed as reduction in cell proliferation by measuring combination index in presence of Elesclomol by MTT assay; type: functional
[32] = target: T2, Serine/threonine-protein kinase haspin (Homo sapiens, UniProt Q8TF76); assay: Inhibition of haspin in human SW620 cells assessed as reduction in IFNgamma-induced H3T3 phosphorylation pre-incubated for 1 hr before IFNgamma stimulation for 3 hrs by Western blot analysis; type: cell-based, SW-620
T2 sequence (Q8TF76 whole entry): T1 sequence (whole entry)

SK-MEL19 [33] = assay: Antiproliferative activity against human SK-MEL19 cells assessed as reduction in cell proliferation by CellTiter-Glo luminescent cell viability assay; type: functional

Chain of Cyclin-dependent kinase 8 (P49336 whole entry): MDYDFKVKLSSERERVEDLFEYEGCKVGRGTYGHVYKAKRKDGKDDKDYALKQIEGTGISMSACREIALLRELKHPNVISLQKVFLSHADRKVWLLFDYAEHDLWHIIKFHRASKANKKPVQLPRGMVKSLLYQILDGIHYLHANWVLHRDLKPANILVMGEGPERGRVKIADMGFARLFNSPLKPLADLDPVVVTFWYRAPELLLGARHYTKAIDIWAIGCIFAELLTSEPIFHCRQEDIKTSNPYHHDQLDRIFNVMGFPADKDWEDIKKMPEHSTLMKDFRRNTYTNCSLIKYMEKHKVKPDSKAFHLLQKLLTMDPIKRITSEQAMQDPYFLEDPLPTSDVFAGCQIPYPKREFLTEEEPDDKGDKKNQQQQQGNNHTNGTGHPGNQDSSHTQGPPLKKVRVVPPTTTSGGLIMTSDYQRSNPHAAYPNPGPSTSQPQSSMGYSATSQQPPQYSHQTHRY

## CCn1c(C(N)=O)cc2c1-c1ccncc1OC2(C)C
BXPC-3 [1]
  CI: 0.25
DU-145 [2]
  CI: 0.21
SW-620 [3]
  Activity: Dose-dependent effect
SW-620 [4]
  GI50: 3390 nM
SW-620 [5]
  CI: 0.65
MDA-MB-231 [6]
  GI50: 3500 nM
SW-620 [7]
  CI: 0.53
MDA-MB-231 [8]
  CI: 0.59
SK-MEL19 [9]
  CI: 0.49
Mus musculus [10]
  inhibition: Active
BXPC-3 [11]
  GI50: 5000 nM
Mus musculus [12]
  inhibition: Active
HCT-116 [13]
  CI: 0.63
DU-145 [14]
  GI50: 5000 nM
DU-145 [15]
  CI: 0.65
BXPC-3 [16]
  CI: 0.72
SW-620 [17]
  EC50: 51 nM
MOLM-13
  GI50: 349 nM
SW-620 [18]
  CI: 0.18
HCT-116 [19]
  CI: 0.58
A549 [20]
  CI: 0.63
MV4-11
  GI50: 115 nM
[21]
  INH: 1.5 10^-8mol/L
HCT-116 [22]
  GI50: 5000 nM
SW-620 [23]
  CI: 0.52
A549 [24]
  GI50: 5000 nM
DU-145 [25]
  CI: 0.44
HCT-116 [26]
  CI: 0.64
SK-MEL19 [27]
  CI: 0.55
SW-620 [28]
  CI: 0.28
SW-620 [29]
  Activity: Dose-dependent effect
[30]
  IC50: 1.5 nM
SW-620 [31]
  CI: 0.05
[32]
  IC50: 1.6 nM
SK-MEL19 [33]
  GI50: 1250 nM
